From US12491188B2, “Small molecule PARG inhibitors and methods of use thereof” (Board of Regents, The University of Texas System, priority 2019, dated 2025)
Where “and” joins values, the source holds several entries; their conditions need not be identical. Equal entries are not always repeated. Where two headings read alike, the source gives them in different places.

How the values were obtained:
human PARG = human PARG (Homo sapiens (Human), UniProt Q86W56); experiment: Gel-based PARG activity assay; format: biochemical
Procedure: FIGS. 9a & 9b show structure-activity relationships (SAR) of compounds from five main chemotypes. (FIG. 9a) A total of 34 representative HTS hits and commercially available analogues from each chemotype (FIG. 7 and FIG. 29) were analyzed using the gel-based PARG activity assay. This gel-based assay directly monitors the change of PARylation status of PARP1 as a substrate of PARG. […] The reaction was quenched after a 30 min incubation at room temperature by adding SDS-PAGE sample buffer. PARylated PARP1C runs as a smear on SDS-PAGE that is reduced to a single band by PARG treatment. […] (FIG. 9b) Quantification of the dose-response PARG inhibition by JA2-3 using the gel-based PARG activity assay. hPARG (1 nM) was preincubated with increasing concentrations (0.032-1 μM) of JA2-3 for 1 hr at room temperature before PARylated PARP1C (500 nM) was added. The reaction was quenched after a 30 min incubation at room temperature. PARylated PARP1C migrates slower than unmodified PARP1C and was quantified using ImageJ. To determine the IC50 value, the dose-response data were plotted as a function of JA2-3 concentration and fitted to the four-parameter logistic equation using SigmaPlot. The rate of the PARG-dependent signal loss in the TR-FRET PAR turnover assay is not equivalent to the steady-state rate of PAR turnover, because the TR-FRET assay can't detect signal loss until the length of PAR chains become shorter than 7 ADP-ribose units. Therefore, the gel-based PARG activity assay to accurately determine the IC50 values throughout the present disclosure.
Gel-based PARG activity assay. PARP1C (2 μM) is enzymatically auto-modified in a reaction containing the PARP1 DBD (2 μM), a 24 mer nicked DNA oligo (2 μM), and NAD+(300 μM) for 1 hr at 37° C., as described previously (Kim et al., 2012). Human PARG^389-976 (1 nM) was pre-incubated with compounds for 1 hr at room temperature. The reaction was initiated by addition of PARylated PARP1 (final concentration of 500 nM) and quenched after 30 min incubation at room temperature by adding SDS-PAGE sample buffer. The gel was visualized by sypro-ruby staining (Kim et al., 2012) and the retained PARylated PARP1C species were quantified using ImageJ (Schneider et al., 2012).
PARylated PARP1C that migrates slower than unmodified PARP1C was quantified. […] The IC50 values were determined by fitting the dose-response data for each compound to a four-parameter logistic equation using SigmaPlot (Systat Software Inc.).
To test specificity of JA2131, human PARG^389-976 (1 nM) was pre-incubated with JA2131 (5, 10, and 20 μM) in the presence and absence of 0.1% Triton-X 100 or 0.1 mg/ml BSA for 1 hr at room temperature. The reaction was initiated, quenched, visualized, and quantified as described above.

rat PARG = rat PARG (Rattus norvegicus (Rat), UniProt Q9QYM2); experiment: High-throughput screening with the TR-FRET PAR turnover assay; format: biochemical; details: 6.7 μM compound; 12.5 nM and 25 nM rat PARG
Procedure: The NCI Diversity Set II library (1,990 compounds) was screened against rat PARG then human PARG was used to validate and optimize PARG inhibitors. The accuracy of the screen was determined by the calculated Z-scores of control reactions, which were between 0.6 and 0.8 throughout the plates, indicative of high reproducibility (FIG. 2a). […] The rate of TR-FRET signal loss in the presence of each candidate inhibitor was compared to that of control reactions containing DMSO only (FIG. 2b). Initially, 104 compounds were selected that inhibited PARG enzymatic activity at both enzyme concentrations. Thirty-nine of these compounds were discarded as they altered fluorescence intensity of donor or acceptor (F520 and F495) by >40% at the first time point. […] For the selected compounds, gel-based assays were performed to directly monitor inhibition of PARP1 dePARylation by PARG (FIG. 2c).
TR-FRET PAR turnover assay. For a high-throughput screening (HTS) of PARG inhibitors, a high-throughput PARG activity assay was developed using the TR-FRET system. Briefly, the fluorescein molecule (FITC) was enzymatically incorporated into PARP1 in a reaction containing PARP1C (2 μM), the PARP1 DBD (2 μM), a 24 mer nicked DNA oligo (2 μM), and a mixture of unlabeled NAD^+ (Sigma) and FITC-NAD^+ (Trevigen) substrates (total NAD+concentration of 100 μM).
After incubation for 1 hr at 37° C., PARylated PARP1 was desalted using a PD-10 desalting column (GE healthcare) in a buffer containing 25 mM Tris-HCl (pH 7.5), 50 mM NaCl, and 0.01% NP-40 and used as the FRET acceptor. The biotin-tagged BRCT1 domain of XRCC1 (BRCT1, 5 nM) was conjugated with an equimolar concentration of Tb^3+-chelated streptavidin (Life Technologies) in TR-FRET assay buffer (FRET donor). […] The reaction was started by the addition of the FRET pair of FITC-labeled PARP1 (42 nM) and Tb^3+-BRCT1 (5 nM). The TR-FRET signal was subsequently monitored for 60 min.
High-throughput screening of PARG inhibitors. Small molecule inhibitors of PARG were identified by high-throughput screening (HTS) using the TR-FRET PAR turnover assay. Compounds (final concentration of 6.7 μM) from the NCI Diversity Set II library (1,990 compounds) were predispensed into black polystyrene 384-well plates (Corning) using a Hummingbird liquid handler (Digilab). Then, 10 μL of rat PARG^385-972 (12.5 nM and 25 nM) was subsequently dispensed into plates using a multi-drop combi nL reagent dispenser (Thermo Scientific), and incubated with compounds for 1 hr at 4° C. The reaction was initiated by the addition of 20 μl of the premixed FRET pair of FITC-labeled PARP1 (42 nM) and Tb^3+-BRCT1 (5 nM), and the TR-FRET signal was monitored every four minutes for 40 min (11 data points). Hits were selected by visually comparing the rate of the TR-FRET signal decrease in each well to that of negative control reactions containing DMSO (FIG. 1b and see Text for details). The HTS was performed at the High-Throughput Screening Core (HTSC) at Washington University School of Medicine.

PARG = details: Falsig et al., 2004; read-out: IC50 of PARG inhibition; cited from earlier work
[1] = Table 1, PARG inhibition, read-out: IC50
[2] = hPARG 1 nM, PARylated PARP1C 500 nM, read-out: IC50 of PARG inhibition
[3] = hPARG 1 nM, PARylated PARP1C 500 nM

Sequence of rat PARG (Q9QYM2 385-972): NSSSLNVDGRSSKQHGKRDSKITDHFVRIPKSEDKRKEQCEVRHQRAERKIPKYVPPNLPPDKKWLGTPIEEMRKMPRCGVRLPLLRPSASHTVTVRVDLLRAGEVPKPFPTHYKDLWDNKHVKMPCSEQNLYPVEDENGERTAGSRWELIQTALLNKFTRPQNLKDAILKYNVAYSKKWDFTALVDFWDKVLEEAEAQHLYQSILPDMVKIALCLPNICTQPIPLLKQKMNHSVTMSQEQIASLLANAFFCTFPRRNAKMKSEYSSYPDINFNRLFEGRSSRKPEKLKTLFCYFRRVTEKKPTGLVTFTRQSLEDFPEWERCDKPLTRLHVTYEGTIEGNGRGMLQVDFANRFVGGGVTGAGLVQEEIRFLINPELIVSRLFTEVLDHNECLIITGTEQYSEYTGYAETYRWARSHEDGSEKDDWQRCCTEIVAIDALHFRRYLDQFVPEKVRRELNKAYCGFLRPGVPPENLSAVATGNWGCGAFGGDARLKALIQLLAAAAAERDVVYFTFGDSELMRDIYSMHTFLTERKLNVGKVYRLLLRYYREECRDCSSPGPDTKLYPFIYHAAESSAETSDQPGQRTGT
Sequence of human PARG (Q86W56 389-976): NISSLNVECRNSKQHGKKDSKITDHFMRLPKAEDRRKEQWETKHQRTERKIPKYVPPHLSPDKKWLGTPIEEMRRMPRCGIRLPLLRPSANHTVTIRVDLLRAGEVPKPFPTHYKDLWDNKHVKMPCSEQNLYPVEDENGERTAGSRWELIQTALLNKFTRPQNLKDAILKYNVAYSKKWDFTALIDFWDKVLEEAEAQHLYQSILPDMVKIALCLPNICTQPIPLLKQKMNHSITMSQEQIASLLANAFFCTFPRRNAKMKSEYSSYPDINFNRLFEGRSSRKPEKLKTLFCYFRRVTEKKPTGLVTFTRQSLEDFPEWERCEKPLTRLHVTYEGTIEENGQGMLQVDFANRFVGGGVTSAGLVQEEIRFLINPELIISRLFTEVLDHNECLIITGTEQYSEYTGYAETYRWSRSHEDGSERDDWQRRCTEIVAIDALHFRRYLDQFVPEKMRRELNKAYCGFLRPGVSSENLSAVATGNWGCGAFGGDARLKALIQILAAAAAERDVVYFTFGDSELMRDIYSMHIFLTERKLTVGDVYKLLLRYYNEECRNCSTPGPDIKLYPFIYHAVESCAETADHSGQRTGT

Work on `Cn1c(=O)[nH]c2nc(SCCN3CCOCC3)[nH]c2c1=O` [JA2120] yielded an IC50 (human PARG; [1]) of 25700 nM and an IC50 (human PARG; [2]) of 25700 nM.
In the case of `Cn1c(=O)c2[nH]c(SCc3c(Cl)cccc3Cl)nc2n(C)c1=O` [LPF-I-68-1], the IC50 (human PARG; [1]) is reported as over 25000 nM.
Work on `Cn1c(=O)c2[nH]c(SCc3ccc(F)cc3)nc2n(C)c1=O` [LPF-I-53-1] yielded an IC50 (human PARG; [1]) of 65000 nM.
`Cn1c(=O)c2c(ncn2CCCC(=O)O)n(C)c1=O` [JA2-9] gave an IC50 (human PARG; [1]) of over 100000 nM.
With `O=C1C=CC(=Nc2cccc3c(N=C4C=CC(=O)O4)cccc23)O1` [Compound 69575] the “~100% PARG inhibition at both 12.5 nM and 25 nM” value (“~100% PARG inhibition” below) (rat PARG) was “Yes”.
For `O=C(OC[C@H]1O[C@@H](OC(=O)c2cc(O)c(O)c(OC(=O)c3cc(O)c(O)c(O)c3)c2)[C@H](OC(=O)c2cc(O)c(O)c(OC(=O)c3cc(O)c(O)c(O)c3)c2)[C@@H](OC(=O)c2cc(O)c(O)c(OC(=O)c3cc(O)c(O)c(O)c3)c2)[C@@H]1OC(=O)c1cc(O)c(O)c(OC(=O)c2cc(O)c(O)c(O)c2)c1)c1cc(O)c(O)c(OC(=O)c2cc(O)c(O)c(O)c2)c1` [Gallotannin], the IC50 (PARG) is listed as under 5 µM.
For `Cn1c(=O)c2[nH]c(SCCN3CCOCC3)nc2n(C)c1=S` [JA2-5], the IC50 (human PARG; [1]) was 1000 nM, the “IC50 of PARG inhibition” value (human PARG; [3]) was “sub-micromolar” and the IC50 (human PARG; [2]) was 100 to 1000 nM. The “~100% PARG inhibition” value (rat PARG) was “Yes”.
In the case of `CCOC(=O)CSc1nc2c([nH]1)c(=O)n(C)c(=O)n2C` [LPF-I-35-1], the IC50 (human PARG; [1]) is reported as over 25000 nM.
For `Cn1c(=O)c2[nH]c(SCCN3C(=O)c4ccccc4C3=O)nc2n(C)c1=O` [LPF-I-81-1], the IC50 (human PARG; [1]) was over 25000 nM.
With `O=c1[nH]c2[nH]c(=S)[nH]c(=S)c2[nH]1` [JA2-3] the IC50 (human PARG; [1]) was 100 nM, the “IC50 of PARG inhibition” value (human PARG; [3]) was “sub-micromolar” and the IC50 (human PARG; [2]) was 100 to 1000 nM. For the same compound, the “~100% PARG inhibition” value (rat PARG) was “Yes”.
With `O=S(=O)(O)c1cc(O)c2c(N=Cc3ccccc3O)cc(S(=O)(=O)O)cc2c1` [Compound 88947] the “~100% PARG inhibition” value (rat PARG) was “Yes”.
`Cn1c(=O)c2[nH]c(SCC(=O)OC(C)(C)C)nc2n(C)c1=O` [LPF-I-27-1] showed an IC50 (human PARG; [1]) of over 25000 nM.
In the case of `Cc1ccc(CSc2nc3c([nH]2)c(=O)n(C)c(=O)n3C)cc1` [LPF-I-64-1], the IC50 (human PARG; [1]) is reported as over 25000 nM.
For `Cc1cc(O)c(-c2cc(O)c(C)cc2O)cc1O` [Compound 2805], the “~100% PARG inhibition” value (rat PARG) was “Yes”.
`Cn1c(=O)c2[nH]c(SCc3ccccc3)nc2n(C)c1=O` [LPF-I-51-1] showed an IC50 (human PARG; [1]) of over 25000 nM.
With `Cn1c(=O)c2[nH]c(CCCC(=O)O)nc2n(C)c1=O` [JA2-2] the IC50 (human PARG; [1]) was over 100000 nM.
With `Cn1c(=S)[nH]c2nc(SCCN3CCCC3)[nH]c2c1=O` [JA2-4] the IC50 (human PARG; [1]) was 900 nM, the “IC50 of PARG inhibition” value (human PARG; [3]) was “sub-micromolar” and the IC50 (human PARG; [2]) was 100 to 1000 nM and 900 nM.
For `O=C1C(Cl)=C(Nc2ccc(S(=O)(=O)Nc3ccccn3)cc2)C(=O)c2ccccc21` [Compound 45382], the “~100% PARG inhibition” value (rat PARG) was “Yes”.
For `Cc1cc(N)c2cc(OCCOc3ccc4nc(C)cc(N)c4c3)ccc2n1` [Compound 22907], the “~100% PARG inhibition” value (rat PARG) was “Yes”.
With `Cn1c(=S)c2[nH]c(SCCN3CCOCC3)nc2n(C)c1=O` [LPF-I-146-1] the IC50 (human PARG; [1]) was 400 nM.
In the case of `O=c1[nH][nH]c(=S)c(=O)[nH]1` [Compound 107684], the “~100% PARG inhibition” value (rat PARG) is reported as “Yes”.
For `CCC(=O)OCN1C(=O)C=CC1=O` [Compound 19630], the “~100% PARG inhibition” value (rat PARG) was “Yes”.
With `FC(F)(F)c1nc2ccc(SSc3ccc4nc(C(F)(F)F)[nH]c4c3)cc2[nH]1` [Compound 659162] the “~100% PARG inhibition” value (rat PARG) was “Yes”.
Work on `CCOC(=O)CCSc1nc2c([nH]1)c(=O)n(C)c(=O)n2C` [LPF-I-83-1] yielded an IC50 (human PARG; [1]) of over 25000 nM.
In the case of `O=[N+]([O-])c1ccc(S(=O)(=O)Cc2ccccc2)c2nonc12` [Compound 228148], the “~100% PARG inhibition” value (rat PARG) is reported as “Yes”.
With `Cc1ccc(C2=C(Cl)C(=O)C(c3ccc(C)cc3)=C(Cl)C2=O)cc1` [Compound 121838] the “~100% PARG inhibition” value (rat PARG) was “Yes”.
